Among the data in patent US11964953B2, “Substituted aminothiazoles as DGKzeta inhibitors for immune activation” (Bayer Aktiengesellschaft, priority 2020, dated 2024) are IC50 values, retold here.

This assay has as its target human DGKζ (Homo sapiens (Human), UniProt Q13574). In words: Human DGKζ kinase activity inhibition assay (ADP-Glo). It is filed as biochemical. To be noted: in vitro human DGKζ kinase activity inhibition assay; read-out: IC50. The method, boiled down:
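Enzyme was C-terminally FLAG-tagged full-length recombinant human DGKζ from baculovirus-infected insect cells. Substrate preparation used octyl-β-D-glucopyranoside in 50 mM MOPS pH 7.4 with sonication; ADP generated was quantified by ADP-Glo luminescence as activity measure.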
For orientation: ADP-Glo turns the ADP formed in a reaction into a luminescent signal.

human DGKζ, sequence (Q13574 other isoform, or with tags, fused parts or gaps): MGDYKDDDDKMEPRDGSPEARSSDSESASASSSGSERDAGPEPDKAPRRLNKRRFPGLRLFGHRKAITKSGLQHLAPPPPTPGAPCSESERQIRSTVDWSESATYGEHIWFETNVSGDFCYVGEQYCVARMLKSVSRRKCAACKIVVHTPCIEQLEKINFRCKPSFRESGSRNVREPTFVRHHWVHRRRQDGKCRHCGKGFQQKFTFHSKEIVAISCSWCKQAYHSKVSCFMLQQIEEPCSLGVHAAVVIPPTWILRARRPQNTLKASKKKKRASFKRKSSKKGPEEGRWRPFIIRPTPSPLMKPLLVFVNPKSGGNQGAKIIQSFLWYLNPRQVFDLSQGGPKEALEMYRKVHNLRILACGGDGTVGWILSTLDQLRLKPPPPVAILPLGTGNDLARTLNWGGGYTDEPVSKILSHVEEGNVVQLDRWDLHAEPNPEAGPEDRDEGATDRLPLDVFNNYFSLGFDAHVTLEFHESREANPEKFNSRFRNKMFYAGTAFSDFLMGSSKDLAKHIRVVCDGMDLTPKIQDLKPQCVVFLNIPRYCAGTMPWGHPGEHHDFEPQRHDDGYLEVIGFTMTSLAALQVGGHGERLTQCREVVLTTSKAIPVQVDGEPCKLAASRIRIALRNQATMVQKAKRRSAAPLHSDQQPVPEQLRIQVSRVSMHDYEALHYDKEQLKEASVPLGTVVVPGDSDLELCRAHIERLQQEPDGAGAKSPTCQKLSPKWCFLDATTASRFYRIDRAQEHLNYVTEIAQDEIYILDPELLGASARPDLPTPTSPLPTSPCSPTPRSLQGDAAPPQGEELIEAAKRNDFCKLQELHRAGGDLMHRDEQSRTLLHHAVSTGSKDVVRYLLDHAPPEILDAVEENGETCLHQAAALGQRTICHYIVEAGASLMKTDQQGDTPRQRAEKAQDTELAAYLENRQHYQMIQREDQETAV

As a reminder, the IC50 is the point on the concentration scale where inhibition reaches its midpoint. `CC(C(N)=O)N(c1ccc(F)cc1)c1nc(N)c(C(=O)c2ccc(OC(F)F)cc2)s1` (single isomer, unassigned) [Example 44.2, 2-(N-[4-amino-5-[4-(difluoromethoxy)benzoyl]thiazol-2-yl]-4-fluoro-anilino)propanamide]: the IC50 stood at 6.72 nM.

`CC(Oc1ccc(C(=O)c2sc(N(c3ccccc3)C(C)C(N)=O)nc2N)cc1)C(N)=O` (single isomer, unassigned) [Example 45.1, 2-(N-[4-amino-5-[4-[2-amino-1-methyl-2-oxo-ethoxy]benzoyl]thiazol-2-yl]anilino)propanamide]: the IC50 was found to be 201 nM.

With `CC(Oc1ccc(C(=O)c2sc(N(c3ccccc3)C(C)C(N)=O)nc2N)cc1)C(N)=O` (single isomer, unassigned) [Example 45.2, 2-(N-[4-amino-5-[4-[2-amino-1-methyl-2-oxo-ethoxy]benzoyl]thiazol-2-yl]anilino)propanamide], the IC50 was 8910 nM.

For the molecule `CC(Oc1ccc(C(=O)c2sc(N(c3ccccc3)C(C)C(N)=O)nc2N)cc1)C(N)=O` (single isomer, unassigned) [Example 45.3, 2-(N-[4-amino-5-[4-[2-amino-1-methyl-2-oxo-ethoxy]benzoyl]thiazol-2-yl]anilino)propanamide], the concentration for half-maximal inhibition (IC50) was 1050 nM.

With `CC(Oc1ccc(C(=O)c2sc(N(c3ccccc3)C(C)C(N)=O)nc2N)cc1)C(N)=O` (single isomer, unassigned) [Example 45.4, 2-(N-[4-amino-5-[4-[2-amino-1-methyl-2-oxo-ethoxy]benzoyl]thiazol-2-yl]anilino)propanamide], the 50% inhibitory concentration (IC50) is more than 20000 nM.

For the molecule `CC(C(N)=O)N(c1nc(N)c(C(=O)c2ccc(OC(F)F)cc2)s1)c1ccc(Cl)cc1F` (single isomer, unassigned) [Example 46.1, 2-(N-[4-amino-5-[4-(difluoromethoxy)benzoyl]thiazol-2-yl]-4-chloro-2-fluoro-anilino)propanamide], the concentration for half-maximal inhibition (IC50) worked out at 1470 nM.

In the case of `CC(C(N)=O)N(c1nc(N)c(C(=O)c2ccc(OC(F)F)cc2)s1)c1ccc(Cl)cc1F` (single isomer, unassigned) [Example 46.2, 2-(N-[4-amino-5-[4-(difluoromethoxy)benzoyl]thiazol-2-yl]-4-chloro-2-fluoro-anilino)propanamide], the concentration for half-maximal inhibition (IC50) is 5.69 nM.

Take `CC(C(N)=O)N(c1ccc(Cl)cc1)c1nc(N)c(C(=O)c2ccc(OC(F)F)cc2)s1` (single isomer, unassigned) [Example 47.1, 2-(N-[4-amino-5-[4-(difluoromethoxy)benzoyl]thiazol-2-yl]-4-chloro-anilino)propanamide]: the IC50 amounted to 1020 nM.

As to `CC(C(N)=O)N(c1ccc(Cl)cc1)c1nc(N)c(C(=O)c2ccc(OC(F)F)cc2)s1` (single isomer, unassigned) [Example 47.2, 2-(N-[4-amino-5-[4-(difluoromethoxy)benzoyl]thiazol-2-yl]-4-chloro-anilino)propanamide], the IC50 was 1.96 nM.

For `CC(C(N)=O)N(c1ccc(Cl)c(F)c1)c1nc(N)c(C(=O)c2ccc(OC(F)F)cc2)s1` (single isomer, unassigned) [Example 48.1, 2-(N-[4-amino-5-[4-(difluoromethoxy)benzoyl]thiazol-2-yl]-4-chloro-3-fluoro-anilino)propanamide], the half-maximal inhibitory concentration (IC50) is 1.76 nM.

`CC(C(N)=O)N(c1ccc(Cl)c(F)c1)c1nc(N)c(C(=O)c2ccc(OC(F)F)cc2)s1` (single isomer, unassigned) [Example 48.2, 2-(N-[4-amino-5-[4-(difluoromethoxy)benzoyl]thiazol-2-yl]-4-chloro-3-fluoro-anilino)propanamide]: the 50% inhibitory concentration (IC50) turned out to be 120 nM.

For the molecule `CC(C(N)=O)N(c1ccc(F)c(F)c1)c1nc(N)c(C(=O)c2ccncc2)s1` (single isomer, unassigned) [Example 50.1, 2-(N-[4-amino-5-(pyridine-4-carbonyl)thiazol-2-yl]-3,4-difluoro-anilino)propanamide], the IC50 was 127 nM.

As for `CC(C(N)=O)N(c1ccc(F)c(F)c1)c1nc(N)c(C(=O)c2ccncc2)s1` (single isomer, unassigned) [Example 50.2, 2-(N-[4-amino-5-(pyridine-4-carbonyl)thiazol-2-yl]-3,4-difluoro-anilino)propanamide], the concentration for half-maximal inhibition (IC50) came to 14300 nM.

In the case of `COc1ccc(C(=O)c2sc(N(c3ccc(F)c(F)c3)C(C)C(N)=O)nc2N)cn1` (single isomer, unassigned) [Example 52.1, 2-(N-[4-amino-5-(6-methoxypyridine-3-carbonyl)thiazol-2-yl]-3,4-difluoro-anilino)propanamide], the IC50 was found to be 72.7 nM.

Take `COc1ccc(C(=O)c2sc(N(c3ccc(F)c(F)c3)C(C)C(N)=O)nc2N)cn1` (single isomer, unassigned) [Example 52.2, 2-(N-[4-amino-5-(6-methoxypyridine-3-carbonyl)thiazol-2-yl]-3,4-difluoro-anilino)propanamide]: the IC50 is 11400 nM.

Consider `CC(C(N)=O)N(c1ccc(F)c(F)c1)c1nc(N)c(C(=O)c2ccc(C(F)(F)F)nc2)s1` (single isomer, unassigned) [Example 53.1, 2-(N-[4-amino-5-[6-(trifluoromethyl)pyridine-3-carbonyl]thiazol-2-yl]-3,4-difluoro-anilino)propanamide], for which the half-inhibitory concentration (IC50) is 20.3 nM.

For the molecule `CC(C(N)=O)N(c1ccc(F)c(F)c1)c1nc(N)c(C(=O)c2ccc(C(F)(F)F)nc2)s1` (single isomer, unassigned) [Example 53.2, 2-(N-[4-amino-5-[6-(trifluoromethyl)pyridine-3-carbonyl]thiazol-2-yl]-3,4-difluoro-anilino)propanamide], the 50% inhibitory concentration (IC50) stood at 1780 nM.

On to `Cc1nc(N(c2ccc(F)c(F)c2)C(C)C(N)=O)sc1C(=O)c1ccc(OC(F)F)cc1` (single isomer, unassigned) [Example 55.1, 2-(N-[5-[4-(difluoromethoxy)benzoyl]-4-methyl-thiazol-2-yl]-3,4-difluoro-anilino)propanamide], for which the IC50 was found to be 6 nM.

Take `Cc1nc(N(c2ccc(F)c(F)c2)C(C)C(N)=O)sc1C(=O)c1ccc(OC(F)F)cc1` (single isomer, unassigned) [Example 55.2, 2-(N-[5-[4-(difluoromethoxy)benzoyl]-4-methyl-thiazol-2-yl]-3,4-difluoro-anilino)propanamide]: the 50% inhibitory concentration (IC50) turned out to be 835 nM.

`CC(C(N)=O)N(c1ccc(Cl)c(F)c1)c1nc(N)c(C(=O)c2ccncc2)s1` (single isomer, unassigned) [Example 56.1, 2-(N-[4-amino-5-(pyridine-4-carbonyl)thiazol-2-yl]-4-chloro-3-fluoro-anilino)propanamide]: the half-inhibitory concentration (IC50) came to 50.5 nM.

Take `CC(C(N)=O)N(c1ccc(Cl)cc1)c1nc(N)c(C(=O)c2ccncc2)s1` (single isomer, unassigned) [Example 57.1, 2-(N-[4-amino-5-(pyridine-4-carbonyl)thiazol-2-yl]-4-chloro-anilino)propanamide]: the IC50 was determined as 137 nM.

Regarding `CC(C(N)=O)N(c1ccc(Cl)cc1)c1nc(N)c(C(=O)c2ccncc2)s1` (single isomer, unassigned) [Example 57.2, 2-(N-[4-amino-5-(pyridine-4-carbonyl)thiazol-2-yl]-4-chloro-anilino)propanamide], the half-inhibitory concentration (IC50) was found to be 14600 nM.

Regarding `COc1ccc(C(=O)c2sc(N(c3ccc(Cl)cc3)C(C)C(N)=O)nc2N)cc1` (single isomer, unassigned) [Example 58.1, 2-(N-[4-amino-5-(4-methoxybenzoyl)thiazol-2-yl]-4-chloro-anilino)propanamide], the IC50 turned out to be 8 nM.

Turning to `COc1ccc(C(=O)c2sc(N(c3ccc(Cl)cc3)C(C)C(N)=O)nc2N)cc1` (single isomer, unassigned) [Example 58.2, 2-(N-[4-amino-5-(4-methoxybenzoyl)thiazol-2-yl]-4-chloro-anilino)propanamide], the IC50 was 1050 nM.

Turning to `COc1ccc(C(=O)c2sc(N(c3ccc(Cl)c(F)c3)C(C)C(N)=O)nc2N)cc1` (single isomer, unassigned) [Example 59.2, 2-(N-[4-amino-5-(4-methoxybenzoyl)thiazol-2-yl]-4-chloro-3-fluoro-anilino)propanamide], the IC50 is 424 nM.

On to `CC(C(N)=O)N(c1ccc(F)cc1)c1nc(N)c(C(=O)c2ccccc2)s1` (single isomer, unassigned) [Example 61.1, 2-(N-(4-amino-5-benzoyl-thiazol-2-yl)-4-fluoro-anilino)propanamide], for which the IC50 is 5180 nM.

On to `Cc1ccc(C(=O)c2sc(N(c3ccc(F)cc3)C(C)C(N)=O)nc2N)cc1` (single isomer, unassigned) [Example 63.1, 2-(N-[4-amino-5-(4-methylbenzoyl)thiazol-2-yl]-4-fluoro-anilino)propanamide], for which the IC50 turned out to be 5170 nM.

`Cc1ccc(C(=O)c2sc(N(c3ccc(F)cc3)C(C)C(N)=O)nc2N)cc1` (single isomer, unassigned) [Example 63.2, 2-(N-[4-amino-5-(4-methylbenzoyl)thiazol-2-yl]-4-fluoro-anilino)propanamide]: the IC50 is 18.5 nM.

`Cc1ccc(N(c2nc(N)c(C(=O)c3ccccc3)s2)C(C)C(N)=O)cc1` (single isomer, unassigned) [Example 73.1, 2-(N-(4-amino-5-benzoyl-thiazol-2-yl)-4-methyl-anilino)propanamide]: the half-maximal inhibitory concentration (IC50) turned out to be 3720 nM.

As to `Cc1ccc(N(c2nc(N)c(C(=O)c3ccccc3)s2)C(C)C(N)=O)cc1` (single isomer, unassigned) [Example 73.2, 2-(N-(4-amino-5-benzoyl-thiazol-2-yl)-4-methyl-anilino)propanamide], the concentration for half-maximal inhibition (IC50) amounted to 82.1 nM.

As to `CC(C(N)=O)N(c1cccc(F)c1)c1nc(N)c(C(=O)c2ccccc2)s1` (single isomer, unassigned) [Example 74.1, 2-(N-(4-amino-5-benzoyl-thiazol-2-yl)-3-fluoro-anilino)propanamide], the IC50 turned out to be 17100 nM.

In the case of `CC(C(N)=O)N(c1nc(N)c(C(=O)c2ccccc2)s1)c1ccccc1F` (single isomer, unassigned) [Example 75.1, 2-(N-(4-amino-5-benzoyl-thiazol-2-yl)-2-fluoro-anilino)propanamide], the IC50 is more than 20000 nM.
